Assay results as given in ChEMBL document CHEMBL5380795, “Design, Synthesis, and Bioactivity Investigation of Cyclic Lipopeptide Antibiotics Containing Eight to Nine Amino Acids” (J Med Chem, 2023).
In brackets after ≈: the same amount, converted by molar mass.

How the values were obtained:
Pseudomonas aeruginosa [1] = assay: Antibacterial activity against carbapenem resistant Pseudomonas aeruginosa clinical isolate 19-3 assessed as inhibition of bacterial growth incubated for 18 to 24 hrs by broth microdilution method; format: functional; settings: time 18-24 hrs
Acinetobacter baumannii [2] = assay: Antibacterial activity against carbapenem resistant Acinetobacter baumannii clinical isolate 19-8 assessed as inhibition of bacterial growth incubated for 18 to 24 hrs by broth microdilution method; format: functional; settings: time 18-24 hrs
Pseudomonas aeruginosa [3] = assay: Antibacterial activity against Pseudomonas aeruginosa clinical isolate 19-1 assessed as inhibition of bacterial growth incubated for 18 to 24 hrs by broth microdilution method; format: functional; settings: time 18-24 hrs
Klebsiella pneumoniae [4] = assay: Antibacterial activity against carbapenem resistant Klebsiella pneumoniae clinical isolate 19-15 assessed as inhibition of bacterial growth incubated for 18 to 24 hrs by broth microdilution method; format: functional; settings: time 18-24 hrs
[5] = Cytotoxicity against human HK-2 cells assessed as inhibition of cell growth incubated for 72 hrs by CCK-8 assay; format: toxicity, cell-based
[6] = Selectivity index, ratio of IC50 for cytotoxicity against human HK-2 cells to MIC for antibacterial activity against Escherichia coli ATCC BAA-2523; format: toxicity, cell-based
Klebsiella pneumoniae [7] = assay: Antibacterial activity against carbapenem resistant Klebsiella pneumoniae clinical isolate 19-17 assessed as inhibition of bacterial growth incubated for 18 to 24 hrs by broth microdilution method; format: functional; settings: time 18-24 hrs
Escherichia coli [8] = assay: Antibacterial activity against Escherichia coli NCTC 13353 assessed as inhibition of bacterial growth incubated for 18 to 24 hrs by broth microdilution method; format: functional; settings: time 18-24 hrs
Escherichia coli [9] = assay: Antibacterial activity against KPC producing Escherichia coli ATCC BAA-2340 assessed as inhibition of bacterial growth incubated for 18 to 24 hrs by broth microdilution method; format: functional; settings: time 18-24 hrs
Pseudomonas aeruginosa [10] = assay: Antibacterial activity against carbapenem resistant Pseudomonas aeruginosa clinical isolate 17-1 assessed as inhibition of bacterial growth incubated for 18 to 24 hrs by broth microdilution method; format: functional; settings: time 18-24 hrs
Acinetobacter baumannii [11] = assay: Antibacterial activity against oxacillinase-27 producing Acinetobacter baumannii NCTC 13304 assessed as inhibition of bacterial growth incubated for 18 to 24 hrs by broth microdilution method; format: functional; settings: time 18-24 hrs
Escherichia coli [12] = assay: Antibacterial activity against Escherichia coli ATCC BAA-2523 assessed as inhibition of bacterial growth incubated for 18 to 24 hrs by broth microdilution method; format: functional; settings: time 18-24 hrs
Staphylococcus aureus [13] = assay: Antibacterial activity against methicillin resistant Staphylococcus aureus ATCC 33591 assessed as inhibition of bacterial growth incubated for 18 to 24 hrs by broth microdilution method; format: functional; settings: time 18-24 hrs
[14] = test system: Staphylococcus epidermidis; assay: Antibacterial activity against methicillin resistant Staphylococcus epidermidis clinical isolate 19-5 assessed as inhibition of bacterial growth incubated for 18 to 24 hrs by broth microdilution method; format: functional; settings: time 18-24 hrs
Escherichia coli [15] = assay: Antibacterial activity against Escherichia coli clinical isolate 19-2 assessed as inhibition of bacterial growth incubated for 18 to 24 hrs by broth microdilution method; format: functional; settings: time 18-24 hrs
[16] = test system: Staphylococcus epidermidis; assay: Antibacterial activity against methicillin resistant Staphylococcus epidermidis clinical isolate 19-6 assessed as inhibition of bacterial growth incubated for 18 to 24 hrs by broth microdilution method; format: functional; settings: time 18-24 hrs
Staphylococcus aureus [17] = assay: Antibacterial activity against Staphylococcus aureus ATCC 29213 assessed as inhibition of bacterial growth incubated for 18 to 24 hrs by broth microdilution method; format: functional; settings: time 18-24 hrs
Klebsiella pneumoniae [18] = assay: Antibacterial activity against KPC producing Klebsiella pneumoniae ATCC BAA-1705 assessed as inhibition of bacterial growth incubated for 18 to 24 hrs by broth microdilution method; format: functional; settings: time 18-24 hrs
Pseudomonas aeruginosa [19] = assay: Antibacterial activity against Pseudomonas aeruginosa ATCC 27853 assessed as inhibition of bacterial growth incubated for 18 to 24 hrs by broth microdilution method; format: functional; settings: time 18-24 hrs

Compound `CCCCCCCCCC(=O)N[C@H](CCN)C(=O)N[C@H]1CCNC(=O)[C@H]([C@@H](C)O)NC(=O)[C@H](CCN)NC(=O)[C@H](CCN)NC(=O)[C@H](CCCCCCCC)NC(=O)[C@@H](CC(C)C)NC(=O)[C@H](CCN)NC1=O` has an MIC (Pseudomonas aeruginosa [1]) of 2 µg/mL (≈ 1.93 µM), an MIC (Acinetobacter baumannii [2]) of 8 µg/mL (≈ 7.7 µM) and an MIC (Pseudomonas aeruginosa [3]) of 2 µg/mL (≈ 1.93 µM). It also gave an MIC (Klebsiella pneumoniae [4]) of 2 µg/mL (≈ 1.93 µM), an IC50 at 72 h [5] of 9.1 µg/mL (≈ 8.76 µM) and a selectivity ratio [6] of 9.1. It also gave an MIC (Klebsiella pneumoniae [7]) of 2 µg/mL (≈ 1.93 µM), an MIC (Escherichia coli [8]) of 2 µg/mL (≈ 1.93 µM) and an MIC (Escherichia coli [9]) of 1 µg/mL (≈ 0.963 µM). The MIC (Pseudomonas aeruginosa [10]) was 4 µg/mL (≈ 3.85 µM), the MIC (Acinetobacter baumannii [11]) was 4 µg/mL (≈ 3.85 µM) and the MIC (Escherichia coli [12]) was 1 µg/mL (≈ 0.963 µM). The MIC (Staphylococcus aureus [13]) was 8 µg/mL (≈ 7.7 µM), the MIC [14] was 1 µg/mL (≈ 0.963 µM) and the MIC (Escherichia coli [15]) was 1 µg/mL (≈ 0.963 µM). For the same compound, the MIC [16] was 2 µg/mL (≈ 1.93 µM), the MIC (Staphylococcus aureus [17]) was 8 µg/mL (≈ 7.7 µM) and the MIC (Klebsiella pneumoniae [18]) was 2 µg/mL (≈ 1.93 µM). For the same compound, the MIC (Pseudomonas aeruginosa [19]) was 2 µg/mL (≈ 1.93 µM).
In the case of `CCCCCCCCCC(=O)N[C@H](CCN)C(=O)N[C@H]1CCNC(=O)[C@H](CC(=O)O)NC(=O)[C@H](CCN)NC(=O)[C@H](CCN)NC(=O)[C@H](CC(C)C)NC(=O)[C@@H](CC(C)C)NC(=O)[C@H](CCN)NC1=O`, the MIC (Pseudomonas aeruginosa [1]) is reported as > 64 µg/mL, the MIC (Acinetobacter baumannii [2]) is reported as > 64 µg/mL and the MIC (Pseudomonas aeruginosa [3]) is reported as > 64 µg/mL. For the same compound, the MIC (Klebsiella pneumoniae [4]) was > 64 µg/mL, the IC50 at 72 h [5] was 347 µg/mL (≈ 349 µM) and the selectivity ratio [6] was < 5.4. For the same compound, the MIC (Klebsiella pneumoniae [7]) was > 64 µg/mL, the MIC (Escherichia coli [8]) was > 64 µg/mL and the MIC (Escherichia coli [9]) was > 64 µg/mL. The MIC (Pseudomonas aeruginosa [10]) was > 64 µg/mL, the MIC (Acinetobacter baumannii [11]) was > 64 µg/mL and the MIC (Escherichia coli [12]) was > 64 µg/mL. The MIC (Staphylococcus aureus [13]) was > 64 µg/mL, the MIC [14] was > 64 µg/mL and the MIC (Escherichia coli [15]) was > 64 µg/mL. For the same compound, the MIC [16] was > 64 µg/mL, the MIC (Staphylococcus aureus [17]) was > 64 µg/mL and the MIC (Klebsiella pneumoniae [18]) was > 64 µg/mL. The MIC (Pseudomonas aeruginosa [19]) was > 64 µg/mL.
In the case of `CCCCCCCCCC(=O)N[C@H](CCN)C(=O)N[C@H]1CCNC(=O)[C@H](Cc2ccccc2)NC(=O)[C@H](CCN)NC(=O)[C@H](CCN)NC(=O)[C@H](Cc2ccccc2)NC(=O)[C@@H](CC(C)C)NC(=O)[C@H](CCN)NC1=O`, the MIC (Pseudomonas aeruginosa [1]) is reported as 4 µg/mL (≈ 3.77 µM), the MIC (Acinetobacter baumannii [2]) is reported as 16 µg/mL (≈ 15.1 µM) and the MIC (Pseudomonas aeruginosa [3]) is reported as 4 µg/mL (≈ 3.77 µM). For the same compound, the MIC (Klebsiella pneumoniae [4]) was 8 µg/mL (≈ 7.53 µM), the IC50 at 72 h [5] was 43.1 µg/mL (≈ 40.6 µM) and the selectivity ratio [6] was 5.4. It also gave an MIC (Klebsiella pneumoniae [7]) of 8 µg/mL (≈ 7.53 µM), an MIC (Escherichia coli [8]) of 8 µg/mL (≈ 7.53 µM) and an MIC (Escherichia coli [9]) of 8 µg/mL (≈ 7.53 µM). It also gave an MIC (Pseudomonas aeruginosa [10]) of 8 µg/mL (≈ 7.53 µM), an MIC (Acinetobacter baumannii [11]) of 16 µg/mL (≈ 15.1 µM) and an MIC (Escherichia coli [12]) of 8 µg/mL (≈ 7.53 µM). The MIC (Staphylococcus aureus [13]) was 16 µg/mL (≈ 15.1 µM), the MIC [14] was 1 µg/mL (≈ 0.941 µM) and the MIC (Escherichia coli [15]) was 4 µg/mL (≈ 3.77 µM). The MIC [16] was 1 µg/mL (≈ 0.941 µM), the MIC (Staphylococcus aureus [17]) was 8 µg/mL (≈ 7.53 µM) and the MIC (Klebsiella pneumoniae [18]) was 1 µg/mL (≈ 0.941 µM). The MIC (Pseudomonas aeruginosa [19]) was 8 µg/mL (≈ 7.53 µM).
